The results in this text go back to ChEMBL document CHEMBL1139687, “Inhibitory effect of carboxylic acid group on hERG binding” (Bioorg Med Chem Lett, 2006).

For the experiment, the target named is Voltage-gated inwardly rectifying potassium channel KCNH2 (Homo sapiens, UniProt Q12809). The experiment is described as follows: Displacement of [3H]dofetilide from human ERG potassium channel expressed in HEK293 cells. For orientation: Displacement assays read how much labelled ligand stays bound in the presence of the test substance.

Where only a bound is given, the exact number is not on record here.

Chain of Voltage-gated inwardly rectifying potassium channel KCNH2 (Q12809 whole entry): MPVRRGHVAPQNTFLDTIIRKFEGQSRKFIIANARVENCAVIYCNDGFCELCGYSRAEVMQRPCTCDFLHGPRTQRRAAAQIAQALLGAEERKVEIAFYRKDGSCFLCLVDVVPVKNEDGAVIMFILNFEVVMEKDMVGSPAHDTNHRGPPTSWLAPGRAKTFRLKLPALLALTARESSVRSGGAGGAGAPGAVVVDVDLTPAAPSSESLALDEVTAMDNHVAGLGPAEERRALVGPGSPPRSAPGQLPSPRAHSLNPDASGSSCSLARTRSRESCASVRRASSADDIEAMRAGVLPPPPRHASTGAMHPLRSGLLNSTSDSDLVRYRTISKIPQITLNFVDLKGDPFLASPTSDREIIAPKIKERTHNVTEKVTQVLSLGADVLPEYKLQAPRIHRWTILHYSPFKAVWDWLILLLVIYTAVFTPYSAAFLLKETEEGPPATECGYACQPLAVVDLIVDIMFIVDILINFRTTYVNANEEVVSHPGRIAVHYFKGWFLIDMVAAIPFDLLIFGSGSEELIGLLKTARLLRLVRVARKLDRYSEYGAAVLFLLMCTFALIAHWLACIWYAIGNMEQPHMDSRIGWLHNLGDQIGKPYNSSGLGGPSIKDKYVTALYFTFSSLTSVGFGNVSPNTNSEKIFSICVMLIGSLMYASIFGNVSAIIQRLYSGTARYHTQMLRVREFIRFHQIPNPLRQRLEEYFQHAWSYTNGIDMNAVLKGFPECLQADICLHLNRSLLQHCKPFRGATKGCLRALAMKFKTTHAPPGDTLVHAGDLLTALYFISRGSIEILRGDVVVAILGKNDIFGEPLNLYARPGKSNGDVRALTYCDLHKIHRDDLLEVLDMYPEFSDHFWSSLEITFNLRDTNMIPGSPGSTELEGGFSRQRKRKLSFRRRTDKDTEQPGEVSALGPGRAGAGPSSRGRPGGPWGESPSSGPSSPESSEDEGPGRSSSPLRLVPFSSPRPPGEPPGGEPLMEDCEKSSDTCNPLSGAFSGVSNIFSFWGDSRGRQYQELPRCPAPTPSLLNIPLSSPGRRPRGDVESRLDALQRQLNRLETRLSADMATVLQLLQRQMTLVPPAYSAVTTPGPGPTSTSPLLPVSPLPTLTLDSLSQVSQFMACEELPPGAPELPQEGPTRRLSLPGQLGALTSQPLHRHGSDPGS

Take `CCOC(=O)C1CCN(C(=N)c2ccc(C(=O)Nc3ccc(Cl)cc3C(=O)Nc3ccc(Cl)cn3)cc2)CC1`: the Ki came to 17 nM. For `N=C(c1ccc(C(=O)Nc2ccc(Cl)cc2C(=O)Nc2ccc(Cl)cn2)cc1)N1CCCC(C(=O)O)C1` (configuration not stated), the Ki is over 10000 nM. Next, `COC(=O)c1ccc(Oc2ccc(NC(=O)c3ccc(C(=N)N(C)C)cc3)c(C(=O)Nc3ccc(Cl)cn3)c2)cc1`: 570 nM. The figure for `CN(C)C(=N)c1ccc(C(=O)Nc2ccc(Sc3ccc(C(=O)O)cc3)cc2C(=O)Nc2ccc(Cl)cn2)cc1` is 4600 nM. The figure for `CN(C)C(=N)c1ccc(C(=O)Nc2ccc(Cl)cc2C(=O)Nc2ccc(Cl)cn2)c(N2CCCCC2C(=O)O)c1` (configuration not stated) is over 2000 nM; for `CN(C)C(=N)c1ccc(C(=O)Nc2ccc(Oc3ccc(C(=O)O)cc3)cc2C(=O)Nc2ccc(Cl)cn2)cc1` it is over 10000 nM; for `Cc1cc(C(=O)Nc2ccc(C(=N)N3CCCC3)cc2)n(-c2cc3ccccc3cc2C(=O)O)n1` it is over 10000 nM. `CN(CC(=O)O)C(=N)c1ccc(C(=O)Nc2ccc(Cl)cc2C(=O)Nc2ccc(Cl)cn2)cc1`: the affinity corresponds to a Ki of 1400 nM. The figure for `COC(=O)CCc1ccc(NC(=O)c2ccc(C(=N)N(C)C)cc2)c(C(=O)Nc2ccc(Cl)cn2)c1` is 790 nM; for `CN(CCCC(=O)O)C(=N)c1ccc(C(=O)Nc2ccc(Cl)cc2C(=O)Nc2ccc(Cl)cn2)cc1` it is 1400 nM. Next, `CCOC(=O)C1CCN(C(=N)c2ccc(C(=O)Nc3c(OC)cc(Cl)cc3C(=O)Nc3ccc(Cl)cn3)c(F)c2)CC1`: 51 nM; `CN(C)C(=N)c1ccc(C(=O)Nc2ccc(Sc3ccc(C(=O)N(C)C)cc3)cc2C(=O)Nc2ccc(Cl)cn2)cc1`: 370 nM; `COc1cc(Cl)cc(C(=O)Nc2ccc(Cl)cn2)c1NC(=O)c1ccc(C(=N)N2CCC(C(=O)O)CC2)cc1F`: over 10000 nM. The figure for `CN(C)C(=N)c1ccc(C(=O)Nc2ccc(Cl)cc2C(=O)Nc2ccc(Cl)cn2)cc1` is 100 nM; for `CN(C)C(=N)c1ccc(C(=O)Nc2ccc(Cl)cc2C(=O)Nc2ccc(Cl)cn2)c(N2CCC(C(=O)O)CC2)c1` it is over 10000 nM. On to `C/C(=C(\F)C(=O)N(CC(=O)O)c1ccc(-c2ccccc2S(N)(=O)=O)cc1)c1cccc(C(=N)N)c1`, for which the Ki was over 10000 nM. `CN(C)C(=N)c1ccc(CN2C(=O)CN(S(=O)(=O)c3cc4cc(Cl)ccc4[nH]3)C[C@@H]2C(=O)O)cc1` gave a Ki of over 10000 nM.

Regarding `CN(C)C(=N)c1ccc(C(=O)Nc2ccc(Cl)cc2C(=O)Nc2ccc(Cl)cn2)c(N(C)CCCC(=O)O)c1`, the Ki is over 6600 nM. The figure for `Cc1cc(C(=O)Nc2ccc(-c3ccccc3CN3CCCCC3)cc2F)n(-c2cc3ccccc3cc2F)n1` is 1000 nM; for `CN1CCN=C1c1ccc(C(=O)N2CCN(S(=O)(=O)c3cc4ccc(Cl)cc4s3)CC2CC(=O)N2CCCC(C(=O)O)C2)cc1` (configuration not stated) it is over 10000 nM.

`CN1CCN=C1c1ccc(C(=O)N2CCN(S(=O)(=O)c3cc4ccc(Cl)cc4s3)CC2CC(=O)N2CCOCC2)cc1` (configuration not stated) displayed a Ki of 600 nM. That is a sub-micromolar value.

`CC(=N)N1CCC(Oc2ccc(N(Cc3ccc4ccc(C(=N)N)cc4c3)S(=O)(=O)CC(=O)O)cc2)CC1` [YM-60828] yielded a Ki of over 10000 nM.

Broadly, the Ki is the dissociation constant of the complex between target and ligand, obtained from inhibition or displacement. Low readings indicate tighter binding, high ones weaker binding.
